Reference: ChEMBL document CHEMBL3885861, “Open TG-GATES”

Species on record: Rattus norvegicus
Test: Open TG-GATES - Regimen: Single
Format: toxicity, organism-based, Sprague-Dawley
Parameters: regimen Single, gender Male, age 6 weeks
Conditions: in vivo, po, 50 mg/kg, route gavage, dose level Middle; for APTT / Bas / Eos / Fbg / Hb / Ht / Lym / MCH / MCHC / MCV / Mono / Neu / PT / Plat / RBC / Ret / WBC: tissue Blood; for KIDNEY_L / KIDNEY_R / KIDNEY_TOTAL: tissue Kidney; for LIVER: tissue Liver; for A/G / ALP / ALT / AST / BUN / CRE / Ca / Cl / DBIL / GLC / IP / K / LDH / Na / PL / RALB / TBIL / TC / TG / TP / gamma-GTP: tissue Plasma

In the case of CC1=C(CC(=O)O)c2cc(F)ccc2/C1=C\c1ccc([S+](C)[O-])cc1 (configuration not stated), the TERMINAL_BW (3 h) is reported as 204.9 g, the APTT (3 h) is reported as 16.8 s and the Bas (3 h) is reported as 0%. The Eos (3 h) was 1%, the Fbg (3 h) was 266 mg/dL and the Hb (3 h) was 13.2 g/dL. For the same molecule, the Ht (3 h) was 40.3%, the Lym (3 h) was 77.6% and the MCH (3 h) was 21.2 pg. For the same molecule, the MCHC (3 h) was 32.7%, the MCV (3 h) was 65 fL and the Mono (3 h) was 2.6%. For the same molecule, the Neu (3 h) was 18.4%, the PT (3 h) was 14.1 s and the Plat (3 h) was 130.3 x10_4/uL. It also gave an RBC (3 h) of 620.8 x10_4/ul, a Ret (3 h) of 8.7% and a WBC (3 h) of 77.3 x10_2/uL. The KIDNEY_L (3 h) was 0.9 g, the KIDNEY_R (3 h) was 0.9 g and the KIDNEY_TOTAL (3 h) was 1.8 g. It also gave an LIVER (3 h) of 9 g, an A/G (3 h) of 0.9 and an ALP (3 h) of 1442.8 IU/L. The ALT (3 h) was 43.4 IU/L, the AST (3 h) was 76.2 IU/L and the BUN (3 h) was 11.4 mg/dL. The CRE (3 h) was 0.2 mg/dL, the Ca (3 h) was 11 mg/dL and the Cl (3 h) was 104.8 meq/L. For the same molecule, the DBIL (3 h) was 0.01 mg/dL, the GLC (3 h) was 166.8 mg/dL and the IP (3 h) was 8.6 mg/dL. It also gave a K (3 h) of 3.9 meq/L, an LDH (3 h) of 81.4 IU/L and a Na (3 h) of 141.6 meq/L. It also gave a PL (3 h) of 140.4 mg/dL, an RALB (3 h) of 2.5 g/dL and a TBIL (3 h) of 0.046 mg/dL. For the same molecule, the TC (3 h) was 74.6 mg/dL, the TG (3 h) was 58.8 mg/dL and the TP (3 h) was 5.3 g/dL. For the same molecule, the gamma-GTP (3 h) was 1.2 IU/L, the TERMINAL_BW (6 h) was 201.8 g and the APTT (6 h) was 15.7 s. It also gave a Bas (6 h) of 0%, an Eos (6 h) of 0.8% and a Fbg (6 h) of 289.4 mg/dL. The Hb (6 h) was 13.7 g/dL, the Ht (6 h) was 42.1% and the Lym (6 h) was 78.4%. For the same molecule, the MCH (6 h) was 21.1 pg, the MCHC (6 h) was 32.6% and the MCV (6 h) was 64.6 fL. The Mono (6 h) was 3%, the Neu (6 h) was 17.2% and the PT (6 h) was 13.8 s. It also gave a Plat (6 h) of 113.6 x10_4/uL, an RBC (6 h) of 652.4 x10_4/ul and a Ret (6 h) of 7.8%. For the same molecule, the WBC (6 h) was 73.5 x10_2/uL, the KIDNEY_L (6 h) was 0.9 g and the KIDNEY_R (6 h) was 0.9 g. For the same molecule, the KIDNEY_TOTAL (6 h) was 1.9 g, the LIVER (6 h) was 8.4 g and the A/G (6 h) was 0.9. The ALP (6 h) was 1437 IU/L, the ALT (6 h) was 44.4 IU/L and the AST (6 h) was 69.8 IU/L. For the same molecule, the BUN (6 h) was 10.8 mg/dL, the CRE (6 h) was 0.2 mg/dL and the Ca (6 h) was 11 mg/dL. For the same molecule, the Cl (6 h) was 106 meq/L, the DBIL (6 h) was 0.01 mg/dL and the GLC (6 h) was 172.4 mg/dL. The IP (6 h) was 9.4 mg/dL, the K (6 h) was 4.3 meq/L and the LDH (6 h) was 69.6 IU/L. For the same molecule, the Na (6 h) was 141 meq/L, the PL (6 h) was 135.6 mg/dL and the RALB (6 h) was 2.6 g/dL. The TBIL (6 h) was 0.044 mg/dL, the TC (6 h) was 70.8 mg/dL and the TG (6 h) was 47.8 mg/dL. The TP (6 h) was 5.3 g/dL, the gamma-GTP (6 h) was 1 IU/L and the TERMINAL_BW (9 h) was 202.2 g. The APTT (9 h) was 16.8 s, the Bas (9 h) was 0% and the Eos (9 h) was 0.8%. It also gave a Fbg (9 h) of 291.6 mg/dL, a Hb (9 h) of 13.5 g/dL and a Ht (9 h) of 41.5%. It also gave a Lym (9 h) of 79.4%, an MCH (9 h) of 20.6 pg and an MCHC (9 h) of 32.6%. The MCV (9 h) was 63.2 fL, the Mono (9 h) was 2.6% and the Neu (9 h) was 16.8%. For the same molecule, the PT (9 h) was 14 s, the Plat (9 h) was 117.4 x10_4/uL and the RBC (9 h) was 656.4 x10_4/ul. For the same molecule, the Ret (9 h) was 7.8%, the WBC (9 h) was 67.5 x10_2/uL and the KIDNEY_L (9 h) was 0.9 g. It also gave a KIDNEY_R (9 h) of 0.9 g, a KIDNEY_TOTAL (9 h) of 1.9 g and an LIVER (9 h) of 8.2 g. For the same molecule, the A/G (9 h) was 0.9, the ALP (9 h) was 1341.4 IU/L and the ALT (9 h) was 42.2 IU/L. For the same molecule, the AST (9 h) was 67.8 IU/L, the BUN (9 h) was 11.2 mg/dL and the CRE (9 h) was 0.2 mg/dL. It also gave a Ca (9 h) of 10.8 mg/dL, a Cl (9 h) of 106.6 meq/L and a DBIL (9 h) of 0.01 mg/dL. It also gave a GLC (9 h) of 177.6 mg/dL, an IP (9 h) of 9.9 mg/dL and a K (9 h) of 4.4 meq/L. The LDH (9 h) was 65.6 IU/L, the Na (9 h) was 142 meq/L and the PL (9 h) was 135 mg/dL. For the same molecule, the RALB (9 h) was 2.6 g/dL, the TBIL (9 h) was 0.04 mg/dL and the TC (9 h) was 71.6 mg/dL. It also gave a TG (9 h) of 38 mg/dL, a TP (9 h) of 5.3 g/dL and a gamma-GTP (9 h) of 1.2 IU/L. For the same molecule, the TERMINAL_BW (24 h) was 210.3 g, the APTT (24 h) was 16.1 s and the Bas (24 h) was 0%. For the same molecule, the Eos (24 h) was 0.6%, the Fbg (24 h) was 354.6 mg/dL and the Hb (24 h) was 13.7 g/dL. It also gave a Ht (24 h) of 42.2%, a Lym (24 h) of 62% and an MCH (24 h) of 21 pg. For the same molecule, the MCHC (24 h) was 32.5%, the MCV (24 h) was 64.8 fL and the Mono (24 h) was 3.2%. For the same molecule, the Neu (24 h) was 33.8%, the PT (24 h) was 13.5 s and the Plat (24 h) was 133.9 x10_4/uL. The RBC (24 h) was 653.2 x10_4/ul, the Ret (24 h) was 7.9% and the WBC (24 h) was 115.7 x10_2/uL. It also gave a KIDNEY_L (24 h) of 0.9 g, a KIDNEY_R (24 h) of 0.9 g and a KIDNEY_TOTAL (24 h) of 1.9 g. The LIVER (24 h) was 9.7 g, the A/G (24 h) was 1 and the ALP (24 h) was 1280.2 IU/L. The ALT (24 h) was 43 IU/L, the AST (24 h) was 67.8 IU/L and the BUN (24 h) was 14.6 mg/dL. For the same molecule, the CRE (24 h) was 0.2 mg/dL, the Ca (24 h) was 11 mg/dL and the Cl (24 h) was 103.4 meq/L. The DBIL (24 h) was 0.01 mg/dL, the GLC (24 h) was 189.6 mg/dL and the IP (24 h) was 7.9 mg/dL. For the same molecule, the K (24 h) was 4 meq/L, the LDH (24 h) was 86.2 IU/L and the Na (24 h) was 141 meq/L. It also gave a PL (24 h) of 141.8 mg/dL, an RALB (24 h) of 2.5 g/dL and a TBIL (24 h) of 0.024 mg/dL. The TC (24 h) was 78.4 mg/dL, the TG (24 h) was 88.4 mg/dL and the TP (24 h) was 5.2 g/dL. For the same molecule, the gamma-GTP (24 h) was 1 IU/L.
